Test system: MO3-13 cells
Assay: Determination of reactive oxygen species (DCF fluorescence) in MO3-13 cells
Assay type: cell-based, human
Settings: 50 μM peptide 30 min
Experimental: (§1) FIG. 10A: DDSK peptide reverts the effects of Ig from MS patients on ROS levels in MO3-13 cells. MO3-13 cells were grown to semi-confluence in 24 multiwell plates and incubated for 18 h in medium containing 0.2% FBS. The cells were washed twice with FBS free medium, incubated with 50 μM of DDSK for 30 min and then with 200 μg/ml of IgG from Control (IgGCtr) or MS (IgGMS) patients for 30 min. Then, the cells were incubated with 10 μM DCHF-DA for 10 min, washed three times and DCF fluorescence was measured using a plate reader fluorometer. The histograms show the mean+/−SEM values obtained in 5 different experiments from 7 control and 7 MS subjects. # p<0.05 vs IgGCtr; *p<0.05 vs IgGMS.
as §1, with “MO3-13” for “FIG. 10A: DDSK peptide reverts the effects of Ig from MS patients on ROS levels in MO3-13 cells. MO3-13”, “Scrambled peptide (Sc)” for “DDSK”, “obtained” for “obtained in 5 different experiments”, “3” for “7”, “subjects.” for “subjects. # p<0.05 vs IgGCtr;”, “IgGCtr.” for “IgGMS.”
ROS levels were determined using the membrane-permeant fluorogenic probe 5,6-carboxy-2′,7′-dichlorofluoresceindiacetate, DCHFDA (Molecular Probes, Leiden, the Netherlands). The assay was based on the fluorescence detection of dichlorofluorescein (DCF), formed by ROS-mediated oxidation of the non-fluorescent precursor, dichlorofluorescin.
MO3-13 cells were grown to semi-confluence in 24 multiwell plates (45000 cell/well) and incubated for 18 h in medium containing 0.2% FBS before the experiments. […] DCF fluorescence was measured using the plate reader Fluoroskan Ascent FL fluorometer (Thermo Electron Oy, Vantaa, Finland) and data analyzed by Ascent software.

DDSKVFKEGS
effect of peptide preincubation on ROS levels of IgG MS treated cells (then 200 μg/ml IgG MS 30 min): reverted the effect | effect of peptide preincubation on ROS levels of IgGCtr treated samples (then 200 μg/ml IgGCtr 30 min): did not significantly affect

From patent US11505592B2, “Diagnosis and therapy of multiple sclerosis” (PRINDEX S.R.L., priority 2015, dated 2022)
